According to patent US9796711B2, “Substituted pyrazolo[3,4-b]pyridin-6-carboxylic acids and method of use” (AbbVie S.àr.l., priority 2015, dated 2017):
pEC50: −log10 of the molar value.

Tests used:
[1] = biological target: T1, ΔF508-CFTR (Homo sapiens, UniProt P13569, DEL508-508); experiment: CFTR cell surface levels using HRP-tagged ΔF508-CFTR expressing CFBE cells, in the presence of a co-corrector; type: cell-based
T1 construct: host or cells: CFBE41o-, doxycycline-inducible
Method in brief: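 Cells were seeded with 0.5 μg/mL doxycycline and held 68 h at 37 °C. Test compounds plus 3 μM co-corrector (final 0.1% DMSO) were then added for 20 h at 33 °C. Washed cells received HRP substrate, and luminescence was normalized between DMSO and 3 μM co-corrector controls.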

[2] = biological target: T1, ΔF508-CFTR; experiment: CFTR cell surface levels using HRP-tagged ΔF508-CFTR expressing CFBE cells, intrinsic corrector capacity; type: cell-based
Method in brief: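 Here the cells express ΔF508-CFTR with horseradish peroxidase inserted in extracellular loop 4, so only rescued channel at the surface gives luminescent signal. Compounds act on their own, 20 h at the reduced temperature of 33 °C; values are percent activity relative to DMSO and a 3 μM corrector.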

[3] = HRP-tagged ΔF508-CFTR expressing CFBE cells, in the presence of 3 μM co-corrector
[4] = HRP-tagged ΔF508-CFTR expressing CFBE cells, in the presence of 3 μM co-corrector, read-out: EC50
[5] = HRP-tagged ΔF508-CFTR expressing CFBE cells, intrinsic corrector capacity (no co-corrector), 33° C., 20 hours
[6] = HRP-tagged ΔF508-CFTR expressing CFBE cells, intrinsic corrector capacity (no co-corrector), 33° C., 20 hours, read-out: EC50
[7] = HRP-tagged ΔF508-CFTR CFBE41o- cells, compounds alone (intrinsic corrector capacity), 20 hours at 33° C., positive control 3 μM corrector
[8] = HRP-tagged ΔF508-CFTR CFBE41o- cells, compounds alone (intrinsic corrector capacity), 20 hours at 33° C., read-out: EC50

T1 sequence (P13569 with tags, fused parts or gaps DEL508-508): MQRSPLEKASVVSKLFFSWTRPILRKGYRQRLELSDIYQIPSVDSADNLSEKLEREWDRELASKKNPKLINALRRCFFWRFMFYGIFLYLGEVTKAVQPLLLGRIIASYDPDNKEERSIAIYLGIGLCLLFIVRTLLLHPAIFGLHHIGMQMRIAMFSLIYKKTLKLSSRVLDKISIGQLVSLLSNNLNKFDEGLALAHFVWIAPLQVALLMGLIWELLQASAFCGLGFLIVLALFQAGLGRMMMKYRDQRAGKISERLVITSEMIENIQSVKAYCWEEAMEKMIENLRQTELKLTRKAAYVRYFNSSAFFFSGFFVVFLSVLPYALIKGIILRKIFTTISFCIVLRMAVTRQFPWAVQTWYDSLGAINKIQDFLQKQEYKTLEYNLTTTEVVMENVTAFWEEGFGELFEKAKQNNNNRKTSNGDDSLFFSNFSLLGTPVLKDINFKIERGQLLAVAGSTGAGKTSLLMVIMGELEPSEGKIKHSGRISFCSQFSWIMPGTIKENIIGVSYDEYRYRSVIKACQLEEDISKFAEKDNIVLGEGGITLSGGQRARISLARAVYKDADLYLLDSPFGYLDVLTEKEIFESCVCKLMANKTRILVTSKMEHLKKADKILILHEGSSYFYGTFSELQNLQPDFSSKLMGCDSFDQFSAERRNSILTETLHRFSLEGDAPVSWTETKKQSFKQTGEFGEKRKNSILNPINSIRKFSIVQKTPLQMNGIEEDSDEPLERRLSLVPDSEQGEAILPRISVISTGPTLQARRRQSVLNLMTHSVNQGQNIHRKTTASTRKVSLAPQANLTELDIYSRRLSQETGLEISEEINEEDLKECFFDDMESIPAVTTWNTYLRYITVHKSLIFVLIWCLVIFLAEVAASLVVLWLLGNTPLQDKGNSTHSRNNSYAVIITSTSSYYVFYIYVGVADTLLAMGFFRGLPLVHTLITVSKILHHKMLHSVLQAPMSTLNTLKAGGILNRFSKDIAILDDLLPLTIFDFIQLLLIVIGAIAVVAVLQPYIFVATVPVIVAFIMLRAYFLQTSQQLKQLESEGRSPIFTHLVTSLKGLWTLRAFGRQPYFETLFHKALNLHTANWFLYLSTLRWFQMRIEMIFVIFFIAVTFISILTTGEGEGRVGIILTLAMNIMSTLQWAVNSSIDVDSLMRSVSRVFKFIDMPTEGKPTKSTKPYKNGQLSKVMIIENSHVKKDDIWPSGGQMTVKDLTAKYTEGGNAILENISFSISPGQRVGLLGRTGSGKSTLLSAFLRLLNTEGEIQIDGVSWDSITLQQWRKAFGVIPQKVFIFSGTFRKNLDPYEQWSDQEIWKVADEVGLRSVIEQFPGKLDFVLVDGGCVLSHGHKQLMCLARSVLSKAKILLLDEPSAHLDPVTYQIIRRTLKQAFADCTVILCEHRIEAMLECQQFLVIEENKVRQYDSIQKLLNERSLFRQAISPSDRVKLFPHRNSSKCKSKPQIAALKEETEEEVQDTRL

| Structure (SMILES) | % Activation [1, 3] | pEC50 [1, 4] | % Activation [2, 5] | pEC50 [2, 6] | % Activation [2, 7] | pEC50 [2, 8] | pEC50 [1] | pEC50 [2] |
| --- | --- | --- | --- | --- | --- | --- | --- | --- |
| COc1ccc(-n2nc(C3CCC3)c3c(N4CCC(N5CCOCC5)CC4)cc(C(=O)O)nc32)cc1F [compound 912, 3-cyclobutyl-1-(3-fluoro-4-methoxyphenyl)-4-[4-(morpholin-4-yl)piperidin-1-yl]-1H-pyrazolo[3,4-b]pyridine-6-carboxylic acid] | 397.9% | 6.57 | 212.4% | 6.14 |  |  |  |  |
| CC(C)c1nn(-c2cccc(N3CC(F)C3)c2)c2nc(C(=O)O)cc(-c3ccc(N4CCOCC4)cc3)c12 [compound 167, 1-[3-(3-fluoroazetidin-1-yl)phenyl]-4-[4-(morpholin-4-yl)phenyl]-3-(propan-2-yl)-1H-pyrazolo[3,4-b]pyridine-6-carboxylic acid] | 568.2% | 6.27 |  |  | 301.1% | 6.22 |  |  |
| O=C(O)c1cc(NC[C@@H]2CCCO2)c2c(C3CCC3)nn(-c3ccccc3)c2n1 [compound 655, 3-cyclobutyl-4-({[(2S)-oxolan-2-yl]methyl}amino)-1-phenyl-1H-pyrazolo[3,4-b]pyridine-6-carboxylic acid] | 340.2% |  | 165.6% |  |  |  | 5.95 | 5.51 |
| CC(C)c1nn(-c2ccnc(N3CCCC3)c2)c2nc(C(=O)O)cc(-c3ccc(N4CCC(C#N)CC4)cc3)c12 [compound 392, 4-[4-(4-cyanopiperidin-1-yl)phenyl]-3-(propan-2-yl)-1-[2-(pyrrolidin-1-yl)pyridin-4-yl]-1H-pyrazolo[3,4-b]pyridine-6-carboxylic acid] | 519.35% | 6.49 |  |  | 302% | 6.46 |  |  |
| CN1CCN(C2CCN(c3cc(C(=O)O)nc4c3c(C3CCC3)nn4-c3ccccc3)CC2)CC1 [compound 757, 3-cyclobutyl-4-[4-(4-methylpiperazin-1-yl)piperidin-1-yl]-1-phenyl-1H-pyrazolo[3,4-b]pyridine-6-carboxylic acid] | 489.6% | 6.40 | 208.45% | 6.50 |  |  |  |  |
| CN1CCCN(CCOc2cc(C(=O)O)nc3c2c(C2CCC2)nn3-c2ccccc2)CC1 [compound 644, 3-cyclobutyl-4-[2-(4-methyl-1,4-diazepan-1-yl)ethoxy]-1-phenyl-1H-pyrazolo[3,4-b]pyridine-6-carboxylic acid] | 196.3% | 5.48 | 42.75% | 5.48 |  |  |  |  |
| Cc1nn(-c2ccccc2)c2nc(C(=O)O)cc(OCC3CCC(F)(F)C3)c12 (centres unmarked) [compound 382, 4-[(3,3-difluorocyclopentyl)methoxy]-3-methyl-1-phenyl-1H-pyrazolo[3,4-b]pyridine-6-carboxylic acid] | 268.1% | 5.85 |  |  | 80.645% | 5.78 |  |  |
| CCCCOC1CCN(c2cc(C(=O)O)nc3c2c(C(C)C)nn3-c2ccc(F)cc2)CC1 [compound 395, 4-(4-butoxypiperidin-1-yl)-1-(4-fluorophenyl)-3-(propan-2-yl)-1H-pyrazolo[3,4-b]pyridine-6-carboxylic acid] | 480.35% | 6.26 | 223.6% | 6.36 |  |  |  |  |
| CCN(CC)C(=O)C1CCCN(c2cc(C(=O)O)nc3c2c(C2CCC2)nn3-c2ccccc2)C1 (centres unmarked) [compound 500, 3-cyclobutyl-4-[3-(diethylcarbamoyl)piperidin-1-yl]-1-phenyl-1H-pyrazolo[3,4-b]pyridine-6-carboxylic acid] | 289% | 6.53 | 132.8% | 6.33 |  |  |  |  |
| CC(C)c1nn(C2CCCC2)c2nc(C(=O)O)cc(-c3ccc(N4CCOCC4)nc3)c12 [compound 77, 1-cyclopentyl-4-[6-(morpholin-4-yl)pyridin-3-yl]-3-(propan-2-yl)-1H-pyrazolo[3,4-b]pyridine-6-carboxylic acid] | 343.4% | 5.95 |  |  | 139.5% | 5.93 |  |  |
| Cc1nn(-c2ccccc2)c2nc(C(=O)O)cc(-c3ccc(N4CC[C@H](C#N)C4)cc3)c12 [compound 155, 4-{4-[(3S)-3-cyanopyrrolidin-1-yl]phenyl}-3-methyl-1-phenyl-1H-pyrazolo[3,4-b]pyridine-6-carboxylic acid] | 399.6% | 6.04 |  |  | 203.65% | 5.87 |  |  |
| COCCN(CCOC)c1ccc(-c2cc(C(=O)O)nc3c2c(C(C)C)nn3-c2ccnc(N3CCOCC3)c2)cn1 [compound 524, 4-{6-[bis(2-methoxyethyl)amino]pyridin-3-yl}-1-[2-(morpholin-4-yl)pyridin-4-yl]-3-(propan-2-yl)-1H-pyrazolo[3,4-b]pyridine-6-carboxylic acid] | 354.25% | 6.58 | 134.7% | 6.34 |  |  |  |  |
| O=C(O)c1cc(N2CCC(F)(F)C2)c2c(C3CCC3)nn(-c3ccccc3)c2n1 [compound 441, 3-cyclobutyl-4-(3,3-difluoropyrrolidin-1-yl)-1-phenyl-1H-pyrazolo[3,4-b]pyridine-6-carboxylic acid] | 289.75% | 5.82 | 111.85% | 5.69 |  |  |  |  |
| CC(C)c1nn(-c2cccc(N3CCCC3)c2)c2nc(C(=O)O)cc(-c3ccc(N(C)C4CCOCC4)cc3)c12 [compound 249, 4-{4-[nethyl(oxan-4-yl)amino]phenyl}-3-(propan-2-yl)-1-[3-(pyrrolidin-1-yl)phenyl]-1H-pyrazolo[3,4-b]pyridine-6-carboxylic acid] | 596.2% | 6.54 |  |  | 410.6% | 6.32 |  |  |
| COCCN1CCN(C2CCN(c3cc(C(=O)O)nc4c3c(C3CCC3)nn4-c3ccccc3)CC2)CC1 [compound 694, 3-cyclobutyl-4-{4-[4-(2-methoxyethyl)piperazin-1-yl]piperidin-1-yl}-1-phenyl-1H-pyrazolo[3,4-b]pyridine-6-carboxylic acid] | 421.9% | 6.27 | 177.4% | 6.31 |  |  |  |  |
| Cc1nn(-c2ccccc2)c2nc(C(=O)O)cc(O[C@H]3C[C@H](N4CCCCC4)C3)c12 [compound 345, 3-methyl-1-phenyl-4-{[trans-3-(piperidin-1-yl)cyclobutyl]oxy}-1H-pyrazolo[3,4-b]pyridine-6-carboxylic acid] | 129.4% | 5.38 |  |  | 23.411% | 5.38 |  |  |
| COC1CCC(Oc2cc(C(=O)O)nc3c2c(C)nn3-c2ccccc2)CC1 (centres unmarked) [compound 376, 4-[(4-methoxycyclohexyl)oxy]-3-methyl-1-phenyl-1H-pyrazolo[3,4-b]pyridine-6-carboxylic acid] | 289.4% | 5.94 |  |  | 109.7% | 5.79 |  |  |
| CC(C)c1nn(-c2cccc(N(C)C)c2)c2nc(C(=O)O)cc(N3CCCCC3)c12 [compound 328, 1-[3-(dimethylamino)phenyl]-4-(piperidin-1-yl)-3-(propan-2-yl)-1H-pyrazolo[3,4-b]pyridine-6-carboxylic acid] | 422.25% | 6.33 |  |  | 196.9% | 6.17 |  |  |
| O=C(O)c1cc(N2CCC(CN3CC4(CCCOC4)C3)CC2)c2c(C3CCC3)nn(-c3ccccc3)c2n1 [compound 836, 3-cyclobutyl-4-{4-[(6-oxa-2-azaspiro[3.5]nonan-2-yl)methyl]piperidin-1-yl}-1-phenyl-1H-pyrazolo[3,4-b]pyridine-6-carboxylic acid] | 325.3% | 6.39 | 137.3% | 6.31 |  |  |  |  |
| CO[C@H]1CC[C@@H](Oc2cc(C(=O)O)nc3c2c(C2CCC2)nn3-c2ccccc2)CC1 [compound 428, 3-cyclobutyl-4-[(cis-4-methoxycyclohexyl)oxy]-1-phenyl-1H-pyrazolo[3,4-b]pyridine-6-carboxylic acid] | 296% | 6.42 | 128.05% | 6.01 |  |  |  |  |
| Cc1nn(-c2ccccc2)c2nc(C(=O)O)cc(N3CC4(CCCC4)C3)c12 [compound 307, 4-(2-azaspiro[3.4]octan-2-yl)-3-methyl-1-phenyl-1H-pyrazolo[3,4-b]pyridine-6-carboxylic acid] | 233.4% | 5.81 |  |  | 77.423% | 5.72 |  |  |
| O=CN1CCCN(CC2CCN(c3cc(C(=O)O)nc4c3c(C3CCC3)nn4-c3ccccc3)CC2)CC1 [compound 839] | 437.3% | 6.75 | 275.7% | 6.04 |  |  |  |  |
| CCN(CC)CCC1CCN(c2cc(C(=O)O)nc3c2c(C2CCC2)nn3-c2ccccc2)CC1 [compound 448, 3-cyclobutyl-4-{4-[2-(diethylamino)ethyl]piperidin-1-yl}-1-phenyl-1H-pyrazolo[3,4-b]pyridine-6-carboxylic acid] | 387.15% | 6.19 | 239.2% | 5.97 |  |  |  |  |
